This note sets out measurements from patent publication US9018371B2, “Adenosine derivatives, method for the synthesis thereof, and the pharmaceutical compositions for the prevention and treatment of the inflammatory diseases containing the same as an active ingredient” (FM Therapeutics Co., Ltd., priority 2007, dated 2015).

A word on the melting point: it is the temperature, or range, at which the solid turns liquid. One may read the Ki as a measure of affinity in units of concentration, obtained from inhibition or displacement. A lower Ki goes with higher affinity.

Series [1] has as its target human A3 adenosine receptor (hA3 AR) (Homo sapiens (Human), UniProt P0DMS8). Description: Binding affinity for human A3 adenosine receptor ([125I]AB-MECA, CHO cells). The conditions noted are these: for Ki: nM ± SEM, [125I]AB-MECA, CHO cells.
Experimental: (§1) The adenosine derivatives of the present invention were assayed for binding affinity for human A1, AZA and A3 adenosine receptors as follows.
(§2) CHO cells (ATCC No. CCL-61), in which A1 and A3 adenosine receptors were expressed, were cultured in F-12 media (Gibco, U.S.A.) supplemented with 10% fetal bovine serum (FBS) and penicillin/streptomycin (100 units/ml and 100 μg/ml), at 37° C. in a 5% CO2 atmosphere. […] Incubation for 1 hr in a 37° C. incubator was followed by rapid filtration in a vacuum using a cell collector (TOMTEC, U.S.A.). Subsequently, the test tubes were washed three times with 3 ml of the buffer before radioactivity was measured using a γ-counter. […] Ki for binding affinity was determined by subtracting the non-specific binding value from the total binding value. On the basis of the specific binding values, the samples were analyzed for binding affinity to various adenosine receptors.
In series [2] the test system is TPA-induced inflammation of the mouse ear. Description: Anti-inflammatory activity, TPA-induced mouse ear inflammation. It is filed as in vivo, ICR mice. The conditions noted are these: TPA-treated ear; for anti-inflammatory activity relative to Examples 2 to 4, on the basis of inhibition percentage: 0.5% in acetone, ICR mice (FIG. 3); for percentage of inflammation inhibition: ICR mice, 24 hrs after TPA. The method, then: The adenosine derivatives of the present invention were examined for anti-inflammatory activity in the following animal test. Seven-week-old male ICR mice were treated with TPA (12-O-tetradecanoylphorbol 13-acetate, 20 μl) in the right ear. […] Hydrocortisone was used at the same concentration as a control.
6 hrs after treatment with TPA, the mice were secondarily treated with the adenosine derivatives of the present invention. 24 hrs after TPA treatment, test animals were euthanized using a cervical dislocation method. Samples were obtained from the right ear using a 6 mm diameter punch. The activity was observed by measuring the ear sample using a microbalance. Percentages of inhibition were calculated using the following Equation 1. The compositions and amounts used in these experiments are summarized in Tables 2 to 5 and the anti-inflammatory activities thereof are shown in FIGS. 2 to 5.

Series [3] concerns the target rat A3 adenosine receptor (Rattus norvegicus (Rat), UniProt P28647). Description: Binding affinity for rat A3 adenosine receptor expressed in CHO cells.
For series [4], the target named is human A2A adenosine receptor (hA2A) (Homo sapiens (Human), UniProt P29274). Description: Binding affinity for human A2A adenosine receptor ([3H]CGS-21680, HEK 293 cell). Particulars: nM ± SEM.
Experimental: as §1
Each of the compounds synthesized in the examples was measured for IC50 at least 6 different concentrations, and the measurements were analyzed using PLAT? software to determine Ki values.
Series [5] in a line: Toxicity assay in animals (abdominal administration, 24 hrs observation). Particulars: 20 mg/kg, 10 mg/kg and 1 mg/kg abdominally, observation for 24 hrs.
Experimental: The compounds synthesized in the examples of the present invention were assayed for cytotoxicity in animals.
Series [6] has as its target human A3 adenosine receptor (Homo sapiens (Human), UniProt P0DMS8). Description: Antagonism of Cl-IB-MECA and cAMP inhibition in CHO cells expressing human A3 adenosine receptor. It is filed as cell-based. The conditions noted are these: various concentrations.
The target in series [7] is human A2B adenosine receptor (Homo sapiens (Human), UniProt P29275). Description: Agonist or antagonist activity on human A2B adenosine receptor.
In series [8] the target is human A1 adenosine receptor (hA1) (Homo sapiens (Human), UniProt P30542). Description: Binding affinity for human A1 adenosine receptor ([3H]CCPA, CHO cells). The conditions noted are these: nM ± SEM.
Experimental: as §1, §2
Where [9] appears, read: 0.5% in distilled water:acetone (1:4).

human A2A adenosine receptor (hA2A), sequence (P29274 whole entry): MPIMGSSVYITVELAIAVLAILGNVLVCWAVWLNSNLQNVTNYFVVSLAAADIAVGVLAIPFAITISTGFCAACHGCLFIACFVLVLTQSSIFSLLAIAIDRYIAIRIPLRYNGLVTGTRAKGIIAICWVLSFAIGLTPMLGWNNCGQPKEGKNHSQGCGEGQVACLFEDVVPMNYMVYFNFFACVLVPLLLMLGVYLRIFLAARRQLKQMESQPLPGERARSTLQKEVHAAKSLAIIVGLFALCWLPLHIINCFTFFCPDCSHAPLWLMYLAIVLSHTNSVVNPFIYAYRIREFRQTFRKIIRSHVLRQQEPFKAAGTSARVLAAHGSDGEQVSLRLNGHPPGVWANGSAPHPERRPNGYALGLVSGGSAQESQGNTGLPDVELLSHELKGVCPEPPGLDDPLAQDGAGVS
human A1 adenosine receptor (hA1), sequence (P30542 whole entry): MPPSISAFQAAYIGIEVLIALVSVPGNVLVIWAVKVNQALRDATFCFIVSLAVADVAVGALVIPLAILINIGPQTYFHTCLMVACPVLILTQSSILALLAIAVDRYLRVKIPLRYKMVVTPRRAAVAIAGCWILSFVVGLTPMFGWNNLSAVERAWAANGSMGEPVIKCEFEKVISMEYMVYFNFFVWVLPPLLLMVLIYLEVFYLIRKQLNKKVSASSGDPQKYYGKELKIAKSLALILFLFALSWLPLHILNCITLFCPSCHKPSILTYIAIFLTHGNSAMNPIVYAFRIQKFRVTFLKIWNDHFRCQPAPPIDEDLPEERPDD
human A3 adenosine receptor (hA3 AR), sequence (P0DMS8 whole entry): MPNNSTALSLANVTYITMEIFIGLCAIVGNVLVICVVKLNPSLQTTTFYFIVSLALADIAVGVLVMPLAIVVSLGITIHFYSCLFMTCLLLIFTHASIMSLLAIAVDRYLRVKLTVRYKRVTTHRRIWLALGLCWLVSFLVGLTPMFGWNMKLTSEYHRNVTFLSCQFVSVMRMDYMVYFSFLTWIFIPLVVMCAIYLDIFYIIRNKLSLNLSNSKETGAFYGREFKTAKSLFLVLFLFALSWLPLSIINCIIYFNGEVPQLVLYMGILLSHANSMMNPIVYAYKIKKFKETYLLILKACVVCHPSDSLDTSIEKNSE
rat A3 adenosine receptor, sequence (P28647 whole entry): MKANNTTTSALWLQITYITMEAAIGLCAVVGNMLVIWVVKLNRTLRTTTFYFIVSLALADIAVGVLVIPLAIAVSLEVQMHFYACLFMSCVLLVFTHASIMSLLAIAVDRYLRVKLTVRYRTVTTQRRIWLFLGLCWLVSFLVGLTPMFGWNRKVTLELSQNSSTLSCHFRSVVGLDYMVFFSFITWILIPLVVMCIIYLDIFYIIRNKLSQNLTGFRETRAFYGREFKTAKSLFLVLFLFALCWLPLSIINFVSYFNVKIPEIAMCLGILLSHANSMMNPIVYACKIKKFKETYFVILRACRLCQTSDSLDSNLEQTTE
human A2B adenosine receptor, sequence (P29275 whole entry): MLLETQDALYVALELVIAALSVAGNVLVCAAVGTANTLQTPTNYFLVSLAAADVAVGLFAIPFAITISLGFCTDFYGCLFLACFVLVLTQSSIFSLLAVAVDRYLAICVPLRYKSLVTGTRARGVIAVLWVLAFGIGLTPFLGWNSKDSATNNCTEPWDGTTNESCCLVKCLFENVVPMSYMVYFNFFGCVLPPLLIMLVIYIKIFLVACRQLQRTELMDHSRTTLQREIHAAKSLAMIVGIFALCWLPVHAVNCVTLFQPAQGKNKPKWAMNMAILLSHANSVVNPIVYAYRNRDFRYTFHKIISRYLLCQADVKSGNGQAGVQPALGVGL
human A3 adenosine receptor, sequence (P0DMS8 whole entry): as the sequence (P0DMS8 whole entry) above

Compound `OC1CS[C@@H](n2cnc3c(NCc4cccc(F)c4)nc(Cl)nc32)C1O` (stereo in doubt) [Example 1, (2R,3R,4S)-2-(2-Chloro-6-(3-fluorobenzylamino)-9H-purin-9-yl)tetrahydrothiophen-3,4-diol] yielded a melting point of 183.2 to 183.5 °C. Besides, in [1], the Ki is 7.4 ± 1.3 nM. In [2], the “anti-inflammatory activity relative to Examples 2 to 4, on the basis of inhibition percentage” value is on record as “four or more times that of the compounds of Examples 2 to 4”.

In turn, `OC1CO[C@@H](n2cnc3c(NCc4cccc(I)c4)nc(Cl)nc32)[C@H]1O` (stereo partly drawn) [Example 16, (2R,3R,4R)-2-(6-(3-iodobenzylamino)-2-chloro-9H-purin-9-yl)tetrahydrofuro-3,4-diol] came in with a melting point of 195.5 to 195.8 °C. Also, in series [1], the “binding affinity for hA3 AR (in words)” value was “high binding affinity and selectivity”; the Ki was found to be 42.9 ± 8.9 nM. In addition, the “percentage of inflammation inhibition” value in series [2] (0.5% in DMSO:acetone (1:9)) came out at 79%.

In [3], `O[C@@H]1[C@H](O)CS[C@H]1n1cnc2c(NCc3cccc(I)c3)nc(Cl)nc21` [Example 4, (2R,3R,4S)-2-(2-Chloro-6-(3-iodobenzylamino)-9H-purin-9-yl)tetrahydrothiophen-3,4-diol] yielded an inhibitory constant (Ki) of 0.00389 ± 0.00115 µM.

The compound `OC1CS[C@@H](n2cnc3c(NCc4ccccc4Cl)nc(Cl)nc32)C1O` (stereo in doubt) [Example 5, (2R,3R,4S)-2-(2-Chloro-6-(2-chlorobenzylamino)-9H-purin-9-yl)tetrahydrothiophen-3,4-diol] returned a melting point of 198.7 to 199.7 °C. For the same compound, affinity in [4] was put at a Ki of 1600 ± 135 nM. The compound further had a Ki in series [1] of 25.8 ± 6.3 nM. In addition, the “percentage of inflammation inhibition” value in [2] (setting [9]) amounted to 17%.

For `OC1CS[C@@H](n2cnc3c(NCc4cccc(Cl)c4)nc(Cl)nc32)C1O` (stereo in doubt) [Example 2, (2R,3R,4S)-2-(2-Chloro-6-(3-chlorobenzylamino)-9H-purin-9-yl)tetrahydrothiophen-3,4-diol], in series [5], the mortality result is listed as “None of the members of the three groups died” and the “weight gain or feed intake versus control group” value is “No difference in weight gain or feed intake”.

Consider `OC1CS[C@@H](n2cnc3c(NCc4cccc5ccccc45)nc(Cl)nc32)C1O` (stereo in doubt) [Example 8, (2R,3R,4S)-2-(2-Chloro-6-(naphthalen-1-ylmethylamino)-9H-purin-9-yl)tetrahydrothiophen-3,4-diol], for which the melting point is 226.3 °C (dec.). This compound also came in with a Ki in series [1] of 24.8 ± 8.1 nM. In addition, the “percentage of inflammation inhibition” value in [2] (setting [9]) was determined as 53%.

For the compound `CNc1nc(Cl)nc2c1ncn2[C@@H]1SC[C@H](O)[C@@H]1O` [Example 10, 2-(2-Chloro-6-methylamino-purin-9-yl)(2R,3S,4R)-tetrahydrothiophen-3,4-diol], in series [1], the Ki was 3.69 ± 0.25 nM.

For the compound `OC1CS[C@@H](n2cnc3c(NCc4cccc(I)c4)nc(Cl)nc32)C1O` (stereo in doubt) [Example 4, (2R,3R,4S)-2-(2-Chloro-6-(3-iodobenzylamino)-9H-purin-9-yl)tetrahydrothiophen-3,4-diol], the “inhibition of the agonist effect of Cl-IB-MECA (in words)” value in series [6] is “inhibited in a dose-dependent manner”. Besides, in series [7], the “agonist or antagonist on human A2B adenosine receptor (in words)” value is on record as “not observed as an agonist or antagonist”.

For the compound `COc1ccccc1CNc1nc(Cl)nc2c1ncn2[C@@H]1SCC(O)C1O` (stereo in doubt) [Example 7, (2R,3R,4S)-2-(2-chloro-6-(2-methoxybenzylamino)-9H-purin-9-yl)tetrahydrothiophen-3,4-diol], the melting point came out at 188 °C. The “percentage of inflammation inhibition” value in [2] (setting [9]) was 34%.

The compound `OC1CS[C@@H](n2cnc3c(NCc4cccc(Br)c4)ncnc32)C1O` (stereo in doubt) [Example 13, (2R,3R,4S)-2-(6-(3-bromobenzylamino)-9H-purin-9-yl)tetrahydrothiophen-3,4-diol] had a melting point of 183 to 184 °C. This compound also had a Ki in series [4] of 420 ± 32 nM. The affinity in series [1] corresponds to a Ki of 6.8 ± 3.4 nM. In series [8], this compound returned a Ki of 790 ± 190 nM.

On to `OC1CS[C@@H](n2cnc3c(NCc4cccc(Br)c4)nc(Cl)nc32)C1O` (stereo in doubt) [Example 3, (2R,3R,4S)-2-(2-Chloro-6-(3-bromobenzylamino)-9H-purin-9-yl)tetrahydrothiophen-3,4-diol], for which the melting point lay in the range of 184 to 185 °C. Also, the Ki in series [1] is 8.99 ± 5.17 nM.

For the compound `OC1CS[C@@H](n2cnc3c(NCc4cccc(Cl)c4)ncnc32)C1O` (stereo in doubt) [Example 12, (2R,3R,4S)-2-(6-(3-Chlorobenzylamino)-9H-purin-9-yl)tetrahydrothiophen-3,4-diol], the results for the inhibitory constant (Ki) in series [4], in series [1] and in series [8] were 440 ± 110 nM, 1.5 ± 0.4 nM and 860 ± 210 nM, respectively.

For the compound `OC1CS[C@@H](n2cnc3c(NCc4cccc(F)c4)ncnc32)C1O` (stereo in doubt) [Example 11, (2R,3R,4S)-2-(6-(3-fluorobenzylamino)-9H-purin-9-yl)tetrahydrothiophen-3,4-diol], the Ki in series [4] was determined as 1260 ± 330 nM; in [1] it was 7.3 ± 0.6 nM; in series [8], 1430 ± 420 nM.

In turn, `OC1CS[C@@H](n2cnc3c(NCc4cccc(I)c4)ncnc32)C1O` (stereo in doubt) [Example 14, (2R,3R,4S)-2-(6-(3-Iodobenzylamino)-9H-purin-9-yl)tetrahydrothiophen-3,4-diol] showed a melting point of 198.8 to 199.8 °C.

`COc1ccc(Cl)cc1CNc1nc(Cl)nc2c1ncn2[C@@H]1SCC(O)C1O` (stereo in doubt) [Example 6, (2R,3R,4S)-2-(2-Chloro-6-(5-chloro-2-methoxybenzylamino)-9H-purin-9-yl)tetrahydrothiophen-3,4-diol] showed a melting point of 188.8 to 189.8 °C. The compound also returned a Ki in series [4] of 4020 ± 1750 nM. In addition, the affinity in series [1] corresponds to a Ki of 12.7 ± 3.7 nM. Besides, the “anti-inflammatory activity relative to Examples 2 to 4, on the basis of inhibition percentage” value in series [2] was “four or more times that of the compounds of Examples 2 to 4”.

`O=C(O)c1cccc(CNc2nc(Cl)nc3c2ncn3[C@@H]2SCC(O)C2O)c1` (stereo in doubt) [Example 9, 3-((2-chloro-9-((2R,3R,4S)-3,4-dihydroxytetrahydrothiophen-2-yl)-9H-purine-6-ylamino)methyl)benzoic acid] returned a melting point of 254 to 256.99 °C.

As for `OC1CO[C@@H](n2cnc3c(NCc4cccc(Br)c4)nc(Cl)nc32)C1O` (stereo in doubt) [Example 15, (2R,3R,4R)-2-(6-(3-Bromobenzylamino)-2-chloro-9H-purin-9-yl)tetrahydrofuran-3,4-diol], the melting point was 181.5 to 181.7 °C. For the same compound, in series [1], the “binding affinity for hA3 AR (in words)” value is “high binding affinity and selectivity”; the affinity, expressed as Ki, was 13 ± 6.9 nM. In series [2] (0.5% in DMSO:acetone (1:9)), the “percentage of inflammation inhibition” value worked out at 59%.
